Laboratory results as given in ChEMBL document CHEMBL3400145, “Design and synthesis of piperazine derivatives as a novel class of γ-secretase modulators that selectively lower Aβ₄₂ production” (Bioorg Med Chem, 2015).
Activity calls are given as the source filed them. The calls are words filed in the database; no cut-off is given here.

Assays:
neuronal [1] = experiment: Inhibition of amyloid beta40 production in rat neuronal cells assessed as maximal inhibition at 3 uM after 3 days by ELISA; format: cell-based
[2] = Metabolic stability in rat hepatic microsomes by LC/MS/MS analysis; format: ADME, Liver, Microsome; details: read-out: CLH
neuronal [3] = experiment: Inhibition of amyloid beta40 production in rat neuronal cells assessed as inflection point after 3 days by ELISA; format: cell-based
Plasma [4] = experiment: Reduction in soluble amyloid beta42 in C57BL/6J mouse plasma at 100 mg/kg, po after 3 hrs by ELISA relative to vehicle treated control; format: functional
Brain [5] = experiment: Reduction in soluble amyloid beta42 in C57BL/6J mouse brain at 100 mg/kg, po after 3 hrs by ELISA relative to vehicle treated control; format: functional
[6] = target: Amyloid-beta precursor protein (Homo sapiens) (UniProt P05067); experiment: Inhibition of amyloid beta42 production in human IMR32 cell by ELISA; format: functional, cell-based; details: IMR-32
Chain of Amyloid-beta precursor protein (Homo sapiens) (P05067 whole entry): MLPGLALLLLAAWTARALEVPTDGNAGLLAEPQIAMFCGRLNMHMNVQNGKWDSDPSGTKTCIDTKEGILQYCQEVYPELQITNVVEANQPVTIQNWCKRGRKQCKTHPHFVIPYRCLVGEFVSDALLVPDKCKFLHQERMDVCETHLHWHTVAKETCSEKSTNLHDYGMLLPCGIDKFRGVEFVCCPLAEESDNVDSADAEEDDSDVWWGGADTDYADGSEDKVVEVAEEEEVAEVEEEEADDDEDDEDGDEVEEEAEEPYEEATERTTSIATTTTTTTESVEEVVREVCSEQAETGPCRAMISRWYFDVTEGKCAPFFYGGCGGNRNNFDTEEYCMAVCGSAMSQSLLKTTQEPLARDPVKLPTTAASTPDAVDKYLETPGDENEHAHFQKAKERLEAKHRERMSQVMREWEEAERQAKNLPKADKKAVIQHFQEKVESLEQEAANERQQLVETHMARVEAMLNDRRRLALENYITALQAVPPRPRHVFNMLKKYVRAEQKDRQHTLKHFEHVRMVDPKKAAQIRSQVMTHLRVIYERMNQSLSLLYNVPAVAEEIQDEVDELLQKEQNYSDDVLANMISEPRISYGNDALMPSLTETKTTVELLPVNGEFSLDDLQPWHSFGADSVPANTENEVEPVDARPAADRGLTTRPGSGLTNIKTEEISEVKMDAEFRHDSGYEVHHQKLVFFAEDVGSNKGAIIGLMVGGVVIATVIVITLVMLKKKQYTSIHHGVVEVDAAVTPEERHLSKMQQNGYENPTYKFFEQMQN

[7] = Mean residence time in C57BL/6J mouse at 1 mg/kg, po cassette dosing; format: ADME, organism-based; parameters: dose 1 mg/kg, route oral; details: in vivo
Mus musculus [8] = experiment: AUC in C57BL/6J mouse at 1 mg/kg, po cassette dosing; format: ADME, organism-based, Plasma; parameters: dose 1 mg/kg, route oral; details: in vivo
Plasma [9] = experiment: Reduction in soluble amyloid beta40 in C57BL/6J mouse plasma at 100 mg/kg, po after 3 hrs by ELISA relative to vehicle treated control; format: functional
Brain [10] = experiment: Reduction in soluble amyloid beta40 in C57BL/6J mouse brain at 100 mg/kg, po after 3 hrs by ELISA relative to vehicle treated control; format: functional
[11] = Cmax in C57BL/6J mouse at 1 mg/kg, po cassette dosing; format: ADME, organism-based; parameters: dose 1 mg/kg, route oral; details: in vivo
IMR-32 = experiment: Inhibition of total amyloid beta production in human IMR32 cell by ELISA; format: functional, cell-based
[12] = target: Amyloid-beta precursor protein (Homo sapiens) (UniProt P05067); experiment: Inhibition of amyloid beta40 production in human IMR32 cell by ELISA; format: functional, cell-based; details: IMR-32
Mus musculus [13] = experiment: Oral bioavailability in C57BL/6J mouse at 1 mg/kg cassette dosing; format: ADME, organism-based; details: in vivo
[14] = Volume of distribution at steady state in C57BL/6J mouse at 0.1 mg/kg, iv cassette dosing; format: ADME, organism-based; parameters: dose 0.1 mg/kg, route intravenous; details: in vivo, read-out: Vdss

COc1cc(N2CCN(C(=O)N[C@@H](C)c3cccc4ccccc34)CC2)ccc1-c1cnc(C)o1
inhibition (neuronal [1]): 67%
microsomal CLint [2]: 130 µL/min/mg
Activity (neuronal [3]): 34 nM

COc1cc(N2CCN(C(=O)Cn3cnc4ccc(C(F)(F)F)cc43)C[C@@H]2C)ccc1-c1cnc(C)o1
inhibition (neuronal [1]): 46%
microsomal CLint [2]: 50 µL/min/mg
Activity (neuronal [3]): 30 nM

COc1cc(N2CCN(C(=O)N[C@@H](C)c3cccc4ccccc34)CC2)ccc1-n1cnc(C)c1
inhibition (neuronal [1]): 57%
inhibition in vivo at 100 mg/kg (Plasma [4]): 16%
microsomal CLint [2]: 150 µL/min/mg
inhibition in vivo at 100 mg/kg (Brain [5]): 4%
Activity (neuronal [3]): 56 nM

COc1cc(N2CCN(C(=O)NCc3cccc4ccccc34)CC2)ccc1-c1cnc(C)o1
inhibition (neuronal [1]): 59%
microsomal CLint [2]: 160 µL/min/mg
Activity (neuronal [3]): 50 nM

COc1cc(N2CCN(C(=O)Cn3cnc4ccc(C(F)(F)F)cc43)CC2)ccc1-c1cnc(C)o1
inhibition (neuronal [1]): 50%
microsomal CLint [2]: 23 µL/min/mg
Activity (neuronal [3]): 65 nM

COc1cc(N2CCN(C(=O)Cn3nnc4ccccc43)CC2)ccc1-c1cnc(C)o1
inhibition (neuronal [1]): 47%
microsomal CLint [2]: 27 µL/min/mg
Activity (neuronal [3]): 210 nM

COc1cc(N2CCN(C(=O)N[C@@H](C)c3cccc4ccccc34)C[C@@H]2C)ccc1-c1cnc(C)o1
inhibition (neuronal [1]): 64%
microsomal CLint [2]: 150 µL/min/mg
Activity (neuronal [3]): 21 nM

COc1cc(N2CCN(C(=O)N[C@@H](C)c3cccc4ccccc34)CC2)ccc1-n1cnc(C)n1
inhibition (neuronal [1]): 68%
microsomal CLint [2]: 110 µL/min/mg
Activity (neuronal [3]): 170 nM

COc1cc(C2CCN(C(=O)N[C@@H](C)c3cccc4ccccc34)CC2)ccc1-c1cnc(C)o1
inhibition (neuronal [1]): 61%
microsomal CLint [2]: 170 µL/min/mg
Activity (neuronal [3]): 260 nM

COc1cc(N2CCCN(C(=O)N[C@@H](C)c3cccc4ccccc34)CC2)ccc1-c1cnc(C)o1
inhibition (neuronal [1]): 57%
microsomal CLint [2]: 240 µL/min/mg
Activity (neuronal [3]): 38 nM

COc1cc(N2CCN(C(=O)CN3Cc4ccccc4C3)CC2)ccc1-c1cnc(C)o1
inhibition (neuronal [1]): 48%
microsomal CLint [2]: 42 µL/min/mg
Activity (neuronal [3]): 620 nM

COc1cc(N2CCN(C(=O)N[C@@H](C)c3cccc4ccccc34)CC2)ccc1-c1cnn(C)c1
inhibition (neuronal [1]): 63%
microsomal CLint [2]: 150 µL/min/mg
Activity (neuronal [3]): 180 nM

COc1cc(N2CCN(C(=O)Cn3cnc4cc(C(F)(F)F)ccc43)CC2)ccc1-c1cnc(C)o1
inhibition (neuronal [1]): 61%
microsomal CLint [2]: 66 µL/min/mg
Activity (neuronal [3]): 50 nM

COc1cc(N2CCN(C(=O)Cn3cnc4cc(C(F)(F)F)ccc43)C[C@@H]2C)ccc1-c1cnc(C)o1
inhibition (neuronal [1]): 60%
inhibition [6]: Dose-dependent effect
MRT [7]: 3.26 h
inhibition in vivo at 100 mg/kg (Plasma [4]): 36%
microsomal CLint [2]: 67 µL/min/mg
AUC (Mus musculus [8]): 3930 ng·h/mL
% of control at 100 mg/kg (Plasma [9]): 106%
% of control at 100 mg/kg (Brain [10]): 105%
Cmax [11]: 773 ng/mL
inhibition (IMR-32): inactive
inhibition [12]: inactive
F (Mus musculus [13]): 46%
Vd [14]: 0.36 L/kg
inhibition in vivo at 100 mg/kg (Brain [5]): 41%
Activity (neuronal [3]): 21 nM

COc1cc(N2CCN(C(=O)Cn3cnc4cccc(C(F)(F)F)c43)CC2)ccc1-c1cnc(C)o1
inhibition (neuronal [1]): 46%
microsomal CLint [2]: 7 µL/min/mg
Activity (neuronal [3]): 420 nM

COc1cc(N2CCN(C(=O)CN3CCc4ccccc43)CC2)ccc1-c1cnc(C)o1
inhibition (neuronal [1]): 52%
microsomal CLint [2]: 160 µL/min/mg
Activity (neuronal [3]): 290 nM

COc1cc(N2CCN(C(=O)N[C@@H](C)c3cccc4ccccc34)C[C@H]2C)ccc1-c1cnc(C)o1
inhibition (neuronal [1]): 65%
microsomal CLint [2]: 150 µL/min/mg
Activity (neuronal [3]): 56 nM

COc1cc(N2CCN(C(=O)Cn3cnc4ccccc43)CC2)ccc1-c1cnc(C)o1
inhibition (neuronal [1]): 71%
microsomal CLint [2]: 22 µL/min/mg
Activity (neuronal [3]): 93 nM

COc1cc(N2CCN(C(=O)Cn3cnc4c(C(F)(F)F)cccc43)CC2)ccc1-c1cnc(C)o1
inhibition (neuronal [1]): 53%
microsomal CLint [2]: 12 µL/min/mg
Activity (neuronal [3]): 110 nM

COc1cc(N2CCN(C(=O)Cn3ccc4ccccc43)CC2)ccc1-c1cnc(C)o1
inhibition (neuronal [1]): 50%
microsomal CLint [2]: 140 µL/min/mg
Activity (neuronal [3]): 180 nM

COc1cc(N2CCN(C(=O)N[C@@H](C)c3cccc4ccccc34)CC2)ccc1-n1cc(C)nn1
inhibition (neuronal [1]): 47%
microsomal CLint [2]: 230 µL/min/mg
Activity (neuronal [3]): 450 nM

COc1cc(N2CCN(C(=O)Cn3ncc4ccccc43)CC2)ccc1-c1cnc(C)o1
inhibition (neuronal [1]): 49%
microsomal CLint [2]: 77 µL/min/mg
Activity (neuronal [3]): 170 nM
